In ChEMBL document CHEMBL2412979, “2-(2-Methylfuran-3-carboxamido)-3-phenylpropanoic acid, a potential CYP26A1 inhibitor to enhance all-trans retinoic acid-induced leukemia cell differentiation based on virtual screening and biological evaluation” (Bioorg Med Chem, 2013):

Experiments:
Assay type in all cases: functional
[1] = test system: NB-4; experiment: Cytotoxicity against human NB4 cells assessed as growth inhibition at 5 uM after 96 hrs by hemocytometry relative to control; conditions: NB-4, 96 h, read-out: GI
[2] = test system: NB-4; experiment: Potentiation of ATRA-induced human NB4 cell differentiation at 10 uM after 96 hrs by nitroblue tetrazolium assay (reference value: 29.44 +/- 2.03%)
[3] = test system: NB-4; experiment: Potentiation of ATRA-induced human NB4 cell differentiation at 5 uM after 96 hrs by nitroblue tetrazolium assay (reference value: 29.44 +/- 2.03%)
[4] = test system: NB-4; experiment: Induction of human NB4 cell differentiation at 0.5 to 10 uM after 96 hrs by nitroblue tetrazolium assay relative to control
[5] = test system: NB-4; experiment: Potentiation of ATRA-induced human NB4 cell growth inhibition at 10 uM after 96 hrs by hemocytometry (reference value: 32.70 +/- 2.25%); conditions: NB-4, 96 h, read-out: GI
[6] = test system: NB-4; experiment: Cytotoxicity against human NB4 cells assessed as growth inhibition at 10 uM after 96 hrs by hemocytometry relative to control; conditions: NB-4, 96 h, read-out: GI
[7] = test system: NB-4; experiment: Potentiation of ATRA-induced human NB4 cell growth inhibition at 5 uM after 96 hrs by hemocytometry (reference value: 32.70 +/- 2.25%); conditions: NB-4, 96 h, read-out: GI
[8] = test system: NB-4; experiment: Potentiation of ATRA-induced human NB4 cell growth inhibition at 1 uM after 96 hrs by hemocytometry (reference value: 32.42 +/- 3.98%); conditions: NB-4, 96 h, read-out: GI
[9] = test system: NB-4; experiment: Cytotoxicity against human NB4 cells assessed as growth inhibition at 0.5 uM after 96 hrs by hemocytometry relative to control; conditions: NB-4, 96 h, read-out: GI
[10] = test system: NB-4; experiment: Cytotoxicity against human NB4 cells assessed as growth inhibition at 1 uM after 96 hrs by hemocytometry relative to control; conditions: NB-4, 96 h, read-out: GI
[11] = test system: NB-4; experiment: Potentiation of ATRA-induced human NB4 cell differentiation at 1 uM after 96 hrs by nitroblue tetrazolium assay (reference value: 29.93 +/- 0.73%)
[12] = test system: NB-4; experiment: Potentiation of ATRA-induced human NB4 cell growth inhibition at 0.5 uM after 96 hrs by hemocytometry (reference value: 32.42 +/- 3.98%); conditions: NB-4, 96 h, read-out: GI
[13] = test system: NB-4; experiment: Potentiation of ATRA-induced human NB4 cell differentiation at 0.5 uM after 96 hrs by nitroblue tetrazolium assay (reference value: 29.93 +/- 0.73%)

| SMILES | inhibition of growth at 5 µM [1] | Activity [2] | Activity [3] | Activity [4] | inhibition of growth at 10 µM [5] | inhibition of growth at 10 µM [6] | inhibition of growth at 5 µM [7] | inhibition of growth at 1 µM [8] | inhibition of growth at 0.5 µM [9] | inhibition of growth at 1 µM [10] | Activity [11] | inhibition of growth at 0.5 µM [12] | Activity [13] |
| --- | --- | --- | --- | --- | --- | --- | --- | --- | --- | --- | --- | --- | --- |
| CCOc1ccc(NS(=O)(=O)c2ccc(Br)cc2)cc1 | 17.1% | 30.3% | 26.83% | 0% | 48.4% | 20.8% | 44.1% |  |  |  |  |  |  |
| Cc1ccc(OCc2nc(-c3cccnc3)no2)c(Br)c1 | 18.2% | 28.85% | 25.37% | 0% | 42.9% | 23.5% | 39.8% |  |  |  |  |  |  |
| O=C(CCN1C(=O)c2ccccc2C1=O)NCc1ccncc1 | 14.6% | 41.21% | 41.55% | 0% | 49.7% | 12.4% | 50.9% | 48.5% | 14.2% | 16.5% | 37.16% | 50.8% | 35.05% |
| CC(=O)Nc1ccc(C(=O)Nc2ccc(OCC(=O)O)cc2)cc1 | 17.9% | 38.97% | 38.29% | 0% | 48.8% | 14.2% | 45.8% | 45.1% | 7.8% | 8.83% | 34.74% | 45% | 37.62% |
| O=C(Nc1ccncc1)c1cc(-c2ccc(Br)cc2)nc2ccccc12 | 37.9% | 38.52% | 33.68% | 0% | 59.4% | 52.9% | 63.1% | 48.7% | 20.2% | 24.7% | 35.7% | 54.3% | 36.53% |
| O=C(CCN1C(=O)c2ccccc2C1=O)Nc1cc(Cl)ccc1C(=O)O | 3.68% | 36.7% | 39.6% | 0% | 39.1% | 9.31% | 41.3% | 38.6% | 13.8% | 19.2% | 36.18% | 47.9% | 35.1% |
| CC1=CC(=O)OC2C=C(OCCOc3ccc(C(C)(C)C)cc3)C=CC12 (centres undefined) | 7.78% | 42.39% | 39.97% | 0% | 48.3% | 6.78% | 43.5% | 43% | 14.4% | 13.6% | 38.42% | 46.1% | 35.72% |
